Data published in ChEMBL document CHEMBL1201862, “PubChem BioAssay data set” (2004).
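Five compound concentrations were applied to cells in 96-well plates for 48 hours; endpoints were derived by simple linear interpolation of the resulting dose-response curve. GI50 = concentration required for 50% inhibition of growth.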 The source made the active and inactive calls. No stated cut-off is given here; in the data, active = GI50 up to about 1.1 µM and inactive = higher.

Columns and labels:
Experiment in all cases: NCI-60 cell line screen, 48 h
[1] = tested on: 786-0
[2] = tested on: A498
[3] = tested on: A549
[4] = tested on: ACHN
[5] = tested on: BT-549
[6] = tested on: CAKI-1
[7] = tested on: CCRF-CEM
[8] = tested on: COLO 205
[9] = tested on: DU-145
[10] = tested on: EKVX
[11] = tested on: HCC 2998
[12] = tested on: HCT-116
[13] = tested on: HCT-15
[14] = tested on: HL-60
[15] = tested on: HOP-62
[16] = tested on: HOP-92
[17] = tested on: HT-29
[18] = tested on: Hs-578T
[19] = tested on: IGROV-1
[20] = tested on: K562
[21] = tested on: KM12
[22] = tested on: LOX IMVI
[23] = tested on: M14
[24] = tested on: MCF7
[25] = tested on: MDA-MB-231
[26] = tested on: MDA-MB-435
[27] = tested on: MOLT-4
[28] = tested on: NCI-H226
[29] = tested on: NCI-H23
[30] = tested on: NCI-H460
[31] = tested on: NCI-H522
[32] = tested on: NCI/ADR-RES
[33] = tested on: OVCAR-3
[34] = tested on: OVCAR-4
[35] = tested on: OVCAR-5
[36] = tested on: OVCAR-8
[37] = tested on: PC-3
[38] = tested on: RPMI-8226
[39] = tested on: RXF 393
[40] = tested on: SF-268
[41] = tested on: SF-295
[42] = tested on: SF-539
[43] = tested on: SK-MEL-28
[44] = tested on: SK-MEL-2
[45] = tested on: SK-MEL-5
[46] = tested on: SK-OV-3
[47] = tested on: SN12C
[48] = tested on: SNB-19
[49] = tested on: SNB-75
[50] = tested on: SW-620
[51] = tested on: T47D
[52] = tested on: TK-10
[53] = tested on: U-251
[54] = tested on: UACC-257
[55] = tested on: UACC-62
[56] = tested on: UO-31
[57] = tested on: Malme-3M
[58] = tested on: SR

Measured: GI50

O=C(NCCN1CCOCC1)c1ccc2cc(C(=O)N3CC(CCl)c4ccc([N+](=O)[O-])cc43)[nH]c2c1 (configuration not stated)
19.1 µM: [13]
inactive: [1] 4.41 µM | [2] 7.03 µM | [3] 5.19 µM | [4] 12.4 µM | [5] 16.9 µM | [6] 24.2 µM | [7] 7.82 µM | [8] 25 µM | [9] 17.5 µM | [10] 16.6 µM | [11] 15 µM | [12] 13.5 µM | [14] 6.14 µM | [15] 17.1 µM | [16] 8.24 µM | [17] 5.14 µM | [18] 4.83 µM | [19] 11.5 µM | [20] 19.4 µM | [21] 23.1 µM | [22] 2.63 µM | [23] 7.38 µM | [24] 17.5 µM | [25] 15.5 µM | [26] 15.5 µM | [27] 6.52 µM | [28] 27.3 µM | [29] 43.6 µM | [30] 11.4 µM | [31] 4.67 µM | [32] > 100 µM | [33] 16.9 µM | [34] 8.77 µM | [35] > 100 µM | [36] 12.1 µM | [37] 15 µM | [38] 2.43 µM | [39] 5.01 µM | [40] 9.84 µM | [41] 3.18 µM | [42] 60.4 µM | [43] 6.62 µM | [44] 16 µM | [45] 2.54 µM | [46] 16.1 µM | [47] 19.2 µM | [48] 12 µM | [49] 6.7 µM | [50] 20.1 µM | [51] 26.2 µM | [52] 16.9 µM | [53] 9.66 µM | [54] 25 µM | [55] 11.9 µM | [56] 43.4 µM

O=C(Nc1ccc(Cl)cc1)c1cc(S(=O)(=O)Nc2n[nH]c(=O)n2-c2ccccc2)c(S)cc1Cl
inactive: [1] > 100 µM | [2] > 100 µM | [3] > 100 µM | [5] > 100 µM | [6] > 100 µM | [7] > 100 µM | [8] > 100 µM | [9] > 100 µM | [10] > 100 µM | [11] > 100 µM | [12] > 100 µM | [14] > 100 µM | [15] > 100 µM | [16] > 100 µM | [17] > 100 µM | [18] > 100 µM | [19] > 100 µM | [21] > 100 µM | [22] > 100 µM | [23] > 100 µM | [24] > 100 µM | [25] > 100 µM | [26] > 100 µM | [27] 6.22 µM | [57] > 100 µM | [28] > 100 µM | [29] > 100 µM | [30] > 100 µM | [32] > 100 µM | [33] 6.28 µM | [34] > 100 µM | [35] > 100 µM | [36] > 100 µM | [38] > 100 µM | [39] > 100 µM | [40] > 100 µM | [41] > 100 µM | [42] > 100 µM | [43] > 100 µM | [44] > 100 µM | [45] > 100 µM | [46] > 100 µM | [47] > 100 µM | [48] > 100 µM | [58] > 100 µM | [50] > 100 µM | [51] > 100 µM | [53] > 100 µM | [54] > 100 µM | [55] > 100 µM | [56] > 100 µM
> 100 µM: [13]

Cn1c(=O)c2nc(/N=N/Nc3nncs3)[nH]c2n(C)c1=O
inactive: [1] > 100 µM | [2] > 100 µM | [3] > 100 µM | [4] > 100 µM | [5] > 100 µM | [6] > 100 µM | [7] > 100 µM | [8] > 100 µM | [9] > 100 µM | [10] > 100 µM | [11] > 100 µM | [12] > 100 µM | [15] > 100 µM | [16] > 100 µM | [17] > 100 µM | [18] > 100 µM | [19] > 100 µM | [20] > 100 µM | [21] > 100 µM | [22] > 100 µM | [23] > 100 µM | [24] > 100 µM | [25] > 100 µM | [26] > 100 µM | [27] > 100 µM | [29] > 100 µM | [30] > 100 µM | [32] > 100 µM | [33] > 100 µM | [34] > 100 µM | [35] > 100 µM | [36] > 100 µM | [37] > 100 µM | [39] > 100 µM | [40] > 100 µM | [41] > 100 µM | [42] > 100 µM | [43] > 100 µM | [44] > 100 µM | [45] > 100 µM | [46] > 100 µM | [47] > 100 µM | [48] > 100 µM | [50] > 100 µM | [51] > 100 µM | [52] > 100 µM | [53] > 100 µM | [54] > 100 µM | [55] > 100 µM | [56] > 100 µM
> 100 µM: [13]

COC(=O)/C=C/N1CC1
inactive: [1] > 10 µM | [3] > 10 µM | [4] > 10 µM | [5] > 10 µM | [6] > 10 µM | [7] > 10 µM | [8] 2.19 µM | [9] > 10 µM | [10] > 10 µM | [11] 3.62 µM | [12] > 10 µM | [14] 8.63 µM | [15] > 10 µM | [17] 3.28 µM | [18] > 10 µM | [19] 1.45 µM | [20] > 10 µM | [21] > 10 µM | [23] > 10 µM | [24] > 10 µM | [25] > 10 µM | [26] > 10 µM | [27] > 10 µM | [57] > 10 µM | [28] > 10 µM | [29] > 10 µM | [30] > 10 µM | [31] > 10 µM | [32] > 10 µM | [33] 5.81 µM | [34] 4.82 µM | [35] 4.76 µM | [36] > 10 µM | [37] 3.12 µM | [38] > 10 µM | [40] > 10 µM | [41] > 10 µM | [42] > 10 µM | [43] > 10 µM | [44] > 10 µM | [45] > 10 µM | [46] > 10 µM | [47] > 10 µM | [48] 8.15 µM | [49] 3.48 µM | [58] > 10 µM | [51] > 10 µM | [52] 4.09 µM | [53] 5.41 µM | [54] > 10 µM | [55] > 10 µM
> 10 µM: [13]

N[C@H](C(=O)O)[C@@H]1CC(Br)=NO1
54.1 µM: [13]
inactive: [1] 99.8 µM | [2] > 100 µM | [3] 87.5 µM | [4] 73.5 µM | [5] 88.9 µM | [6] 90.2 µM | [8] 71.3 µM | [9] > 100 µM | [10] 73.3 µM | [11] 59.6 µM | [12] 52.4 µM | [14] > 100 µM | [15] 61.9 µM | [16] > 100 µM | [17] 57.5 µM | [18] > 100 µM | [21] 75.2 µM | [23] 53.5 µM | [24] 41.5 µM | [25] > 100 µM | [26] 95.3 µM | [27] 59.3 µM | [57] > 100 µM | [28] > 100 µM | [29] > 100 µM | [30] 42.2 µM | [31] 77.4 µM | [32] > 100 µM | [33] > 100 µM | [34] > 100 µM | [35] 61.4 µM | [36] 85.5 µM | [37] > 100 µM | [39] > 100 µM | [40] > 100 µM | [41] 73.6 µM | [42] 97.7 µM | [44] > 100 µM | [45] 54.5 µM | [46] 69.5 µM | [48] > 100 µM | [49] 62.4 µM | [58] 44.1 µM | [50] 48.6 µM | [51] > 100 µM | [52] 47.1 µM | [53] > 100 µM | [54] > 100 µM | [55] 85.5 µM | [56] > 100 µM
